Where a name gives a salt, the structure may show the parent alone. Read-outs that look alike come from different tables or passages of the source.
How the values were obtained:
[1] = Evaluation of acid addition salts (ease of formation and crystallinity); format: physicochemical; conditions: for Overall Salt Rating: based on ease of formation and crystallinity, salt of 1a (free base treated with acid); for isomer formation on recrystallization (words): EtOAc in Table III
Procedure: Many counter-ions were evaluated for salt-forming properties. The data presented in Table III answer the following questions: (1) did a solid salt precipitate from ether when free base 1a was treated with each acid?; (2) following collection of the salt by either filtration or evaporation of the ether, what solvents were used to crystallize the salt, and was a crystalline salt obtained from each solvent?; (3) melting point information; and (4) overall rating of each salt, based on considerations of ease of formation and crystallinity.

[2] = biological target: rat cerebral cortex muscarinic receptors; conditions: Table I; read-out: QNB Binding IC50
[3] = biological target: rat cerebral cortex muscarinic receptors; assay: Muscarinic receptor binding, CMD (cis-methyldioxolane) agonist radioligand; conditions: for IC50: Table I
[4] = Aqueous solubility of crystalline salts of 1a; format: physicochemical; conditions: for solubility: water, room temp.
[5] = Stability of crystalline salts of 1a under accelerated stability conditions; format: physicochemical
From the text: Maleate and benzoate salts were recrystallized from ethyl acetate and t-butyl methyl ether, respectively. Xenon exposure with the Atlas SunChex set for 0.4±0.1 watts/m^2. Fluorescent exposure with 1000-±100-ft candles.

[6] = test system: rat cerebral cortex muscarinic receptors; conditions: earlier publications, cited from earlier work
[7] = test system: m1-subtype muscarinic receptors; conditions: cited from earlier work
[8] = Refrigerated storage stability of free base; format: physicochemical; conditions: refrigerated at -4° C., up to several days
[9] = Hygroscopicity of salts of Compound 1a; format: physicochemical; conditions: for Hygroscopicity (% wt increase): RT, 81% RH for 16 days, crimped DSC pans; for moisture uptake / hygroscopicity in words: salts of Table IV
[10] = test system: hippocampally deficient mice; format: in vivo, mouse
From the text: This test measures the ability of a compound to decrease the amount of time needed by the mice to find a hidden platform in the water pool.
The graph represents two sets of experiments, each one with its own control group.

[11] = Xenon, 26 hours, 0.4±0.1 watts/m^2
[12] = 1a versus isomer 1b, Tables II and III of Jaen reference

**Q.** For `CCCC(=O)O.COc1cccc(C#CCON=C2CN3CCC2C3)c1` (centres unmarked), which “Overall Salt Rating” value [1] is on record?
**A.** Its value is “Low”.

**Q.** Which results are given for `COc1cccc(C#CCO/N=C2/CN3CCC2C3)c1` (centres unmarked) [(1c + 1d)]?
**A.** IC50 [2]: 14.8 µM; IC50 [3]: 150 nM

**Q.** Which “Overall Salt Rating” value [1] does the source give for `COc1cccc(C#CCO/N=C2\CN3CC[C@@H]2C3)c1` [Acetate] here?
**A.** Its value is “Low”.

**Q.** For `COc1cccc(C#CCO/N=C2\CN3CC[C@@H]2C3)c1` [Benzene Sulfonae Sulphonate], which “Overall Salt Rating” value [1] is on record?
**A.** Its value is “Low”.

**Q.** With `COc1cccc(C#CCO/N=C2\CN3CC[C@@H]2C3)c1` [Benzoate] as the compound, how does the solubility [4] read?
**A.** The solubility was 6 mg/mL.

**Q.** And the “Overall Salt Rating” value [1]?
**A.** The value was “High”.

**Q.** And the stability in words ([5]; 25° C./60% RH and 30° C./60% RH)?
**A.** Its stability in words is “stable”.

**Q.** And the “Stability: presence of 1c” value ([5]; 30° C./60% RH, 2 weeks)?
**A.** Its value is “.largecircle”.

**Q.** What about the “Stability to light: presence of 1c” value [5, 11] of the same compound?
**A.** The value was “E (presence of 2%-4% 1c)”.

**Q.** For `COc1cccc(C#CCON=C2CN3CCC2C3)c1` (centres unmarked) [Compound 1], which “affinity to rat cerebral cortex muscarinic receptors” value ([6]; rat cerebral cortex) is on record?
**A.** The value was “high affinity”.

**Q.** And the “ability to displace agonist radioligand (cis-methyldioxolane) at lower concentrations than those required to displace antagonist radioligand (quinuclidinyl benzilate)” value ([6]; ratio QNB/CMD)?
**A.** Its value is 246 times.

**Q.** What about the “selective stimulation of m1-subtype muscarinic receptors” value ([7]; versus other non-m1 muscarinic receptors, earlier publications) of the same compound?
**A.** Its value is “selectively stimulate m1-subtype muscarinic receptors without significant stimulation of other non-m1 muscarinic receptors”.

**Q.** Which results are given for `COc1cccc(C#CCO/N=C2\CN3CC[C@@H]2C3)c1` [Compound 1a, [R-(Z)]-1-azabicyclo [2.2.1]heptan-3-one, O-[3-(3-methoxyphenyl)-2-propynyl]oxime]?
**A.** decomposition or isomerization to 1c on storage [8]: without noticeable decomposition or isomerization to produce 1c; IC50 [2]: 5.3 µM; m1 potency [7, 12]: greater m1 potency than isomer 1b; m1 receptor subtype selectivity [7, 12]: greater m1 receptor subtype selectivity; potency and efficacy as a muscarinic agonist (ratio of QNB to CMD binding) ([3]; 1a versus mixture of 1c/1d): more potent and more efficacious as a muscarinic agonist; IC50 [3]: 25 nM

**Q.** For `COc1cccc(C#CCO/N=C2\CN3CC[C@H]2C3)c1` [Compound 1b], which muscarinic agonist activity ([7]; isomer 1b, could be due to small amounts of 1a) is on record?
**A.** Its muscarinic agonist activity is “small amount of activity”.

**Q.** For `COc1cccc(C#CCO/N=C2\CN3CC[C@@H]2C3)c1` [Fumarate (0.5 epui)], which “Overall Salt Rating” value [1] is on record?
**A.** The value was “Medium”.

**Q.** With `COc1cccc(C#CCO/N=C2\CN3CC[C@@H]2C3)c1` [Fumarate (1 equi)] as the compound, how does the “Overall Salt Rating” value [1] read?
**A.** The value was “Low”.

**Q.** For `COc1cccc(C#CCO/N=C2\CN3CC[C@@H]2C3)c1` [Hydrobromide], which “Overall Salt Rating” value [1] is on record?
**A.** The value was “Low”.

**Q.** What about the “hygroscopicity of precipitated salt” value ([1]; precipitation from Et2O) of the same compound?
**A.** Its value is “very hygroscopic”.

**Q.** Which “Hygroscopicity (% wt increase)” value [9] does the source give for `COc1cccc(C#CCO/N=C2\CN3CC[C@@H]2C3)c1` [Hydrochloride] here?
**A.** Its value is 27.77 ± 0.40 % wt.

**Q.** What about the “moisture uptake / hygroscopicity in words” value ([9]; listed as HCl salt) of the same compound?
**A.** The value was “took up water most rapidly and to the greatest extent”.

**Q.** What about the “moisture uptake / hygroscopicity in words” value ([9]; listed as hydrochloride salt) of the same compound?
**A.** The value was “extremely hygroscopic”.

**Q.** What about the “Overall Salt Rating” value [1] of the same compound?
**A.** Its value is “High”.

**Q.** And the “isomer formation on recrystallization (words)” value [1]?
**A.** Its value is “E-Isomer Formation”.

**Q.** And the “isomer formation on recrystallization (words)” value ([1]; listed as hydrochloride)?
**A.** The value was “difficult to recrystallize without converting 1a to 1c”.

**Q.** Which “Overall Salt Rating” value [1] does the source give for `COc1cccc(C#CCO/N=C2\CN3CC[C@@H]2C3)c1` [L(+)-Lactate] here?
**A.** Its value is “Low”.

**Q.** Which “Overall Salt Rating” value [1] does the source give for `COc1cccc(C#CCO/N=C2\CN3CC[C@@H]2C3)c1` [Malate] here?
**A.** The value was “Low”.

**Q.** Which “solubility in water relative to 1a benzoate” value ([4]; 1a maleate versus 1a benzoate) does the source give for `COc1cccc(C#CCO/N=C2\CN3CC[C@@H]2C3)c1` [Maleate, (R)-(Z)-1-azabicyclo[2.2.1]heptan-3-one,O-[3-(3-methoxyphenyl)-2-propynyl]oxime, (Z)-butenedioic acid, [1:1 salt]] here?
**A.** Its value is “about 15 times”.

**Q.** And the solubility [4]?
**A.** Its solubility is 89 mg/mL.

**Q.** And the “Hygroscopicity (% wt increase)” value [9]?
**A.** Its value is 0.32 ± 0.02 % wt.

**Q.** And the “moisture uptake / hygroscopicity in words” value [9]?
**A.** Its value is “the least”.

**Q.** And the latency improvement ([10]; 1 mg/kg, separate set of experiments (maleate))?
**A.** The latency improvement was “about 20 seconds”.

**Q.** And the “biological activity compared to other salts” value ([10]; water maze)?
**A.** The value was “no loss of biological activity”.

**Q.** What about the “Stability to light: presence of 1c” value ([5]; Fluorescence, 5.5 months, 1000-±100-ft candles) of the same compound?
**A.** The value was “.largecircle”.

**Q.** And the “Stability to light: presence of 1c” value [5, 11]?
**A.** Its value is “.largecircle”.

**Q.** For `COc1cccc(C#CCO/N=C2\CN3CC[C@@H]2C3)c1` [Oxalate], which “Hygroscopicity (% wt increase)” value [9] is on record?
**A.** Its value is 6.38 ± 1.40 % wt.

**Q.** What about the “moisture uptake / hygroscopicity in words” value ([9]; listed as oxalate salt) of the same compound?
**A.** Its value is “less hygroscopic than the hydrochloride”.

**Q.** What about the “reduction of time required to find the platform” value ([10]; 1 mg/kg, first set of experiments (oxalate)) of the same compound?
**A.** Its value is “about 18 seconds”.

**Q.** For `COc1cccc(C#CCO/N=C2\CN3CC[C@@H]2C3)c1` [Stearate], which “Overall Salt Rating” value [1] is on record?
**A.** The value was “Low”.

**Q.** With `COc1cccc(C#CCO/N=C2\CN3CC[C@@H]2C3)c1` [Succinate] as the compound, how does the “Overall Salt Rating” value [1] read?
**A.** The value was “Low”.

**Q.** Which “Overall Salt Rating” value [1] does the source give for `COc1cccc(C#CCO/N=C2\CN3CC[C@@H]2C3)c1` [Tartrate (D)-(-) (0.5 equi)] here?
**A.** The value was “Low”.

**Q.** With `COc1cccc(C#CCO/N=C2\CN3CC[C@@H]2C3)c1` [Tartrate (D)-(-) (1 equi)] as the compound, how does the “Overall Salt Rating” value [1] read?
**A.** The value was “Low”.

**Q.** With `COc1cccc(C#CCO/N=C2\CN3CC[C@@H]2C3)c1` [Tartrate (L)-(+) (0.5 equi)] as the compound, how does the “Overall Salt Rating” value [1] read?
**A.** Its value is “Low”.

**Q.** For `COc1cccc(C#CCO/N=C2\CN3CC[C@@H]2C3)c1` [Tartrate (L)-(+) (1 equi)], which “Overall Salt Rating” value [1] is on record?
**A.** The value was “Low”.

**Q.** Which “physical state under accelerated stability condition” value ([5]; 2 weeks, 40° C./75% RH) does the source give for `COc1cccc(C#CCO/N=C2\CN3CC[C@@H]2C3)c1` [ether-precipitated product] here?
**A.** The value was “deliquescent”.

**Q.** Which “stability compared with ether-precipitated product” value ([5]; ethyl acetate recrystallized versus ether-precipitated) does the source give for `COc1cccc(C#CCO/N=C2\CN3CC[C@@H]2C3)c1` [ethyl acetate recrystallized maleate salt] here?
**A.** The value was “more stable”.

**Q.** Which “latency improvement, tacrine control group” value ([10]; tacrine in the maleate set of experiments) does the source give for `Nc1c2c(nc3ccccc13)CCCC2` [tacrine, reference compound] here?
**A.** The value was 24 s.

**Q.** And the “improvement of time to find the platform, positive control” value ([10]; tacrine in the oxalate set of experiments)?
**A.** The value was ~27 s.

From patent US5534522A, “(R)-(Z)-1-azabicyclo [2.2.1] heptan-3-one,O-[3-(3-methoxyphenyl)-2-propynyl] oxime maleate as a pharmaceutical agent” (Warner-Lambert Company, priority 1995, dated 1996)
